According to US6589915B1, “Benzohetero cyclylcyclo hexenones and their use as herbicides” (BASF Aktiengesellschaft, priority 1999, dated 2003):

What was measured:
Assay type in all cases: in vivo
[1] = system: IPOSS; assay: greenhouse post-emergence herbicidal test
Text: (§1) The seeds of the test plants were sown separately for each species. For the post-emergence treatment, the test plants were first, grown to a plant height of from 3 to 15 cm, depending on the plant habit, and only then treated with the active ingredients which had been suspended or emulsified in water. To this end, the test plants were either sown directly and grown in the same containers, or they were first grown separately as seedlings and transplanted into the test containers a few days prior to treatment. […] Depending on the species, the plants were kept at from 10 to 25° C., or 20 to 35° C., respectively. The test period extended over 2 to 4 weeks. During this time, the plants were tended, and their response to the individual treatments was evaluated. Evaluation was carried out using a scale of from 0 to 100. 100 means no emergence of the plants, or complete destruction of at least the aerial parts, and 0 means no damage, or normal course of growth. The following experiments were performed by the post-emergence method.

[2] = system: AMARE (redroot pigweed); assay: greenhouse post-emergence herbicidal test
Text: as §1, with “growth. [table]” for “growth.”

[3] = system: CHEAL (lambsquarters (goosefoot)); assay: greenhouse post-emergence herbicidal test
Text: as §1, with “growth. [table]” for “growth.”

[4] = system: POLPE (ladysthumb); assay: greenhouse post-emergence herbicidal test
Text: as §1, with “growth. [table]” for “growth.”

[5] = system: wheat; assay: greenhouse post-emergence test, crop selectivity; settings: 0.25 and 0.5 kg/ha (a.s.)
Text: as §1, with “growth. [table]” for “growth.”

[6] = system: ECHCG (barnyard grass); assay: greenhouse post-emergence herbicidal test
Text: as §1, with “growth. [table]” for “growth.”

[7] = system: ABUTH (velvet leaf); assay: greenhouse post-emergence herbicidal test
Text: as §1, with “growth. [table]” for “growth.”

[8] = system: SETFA (giant foxtail); assay: greenhouse post-emergence herbicidal test
Text: as §1, with “growth. [table]” for “growth.”

[9] = system: PHPBU; assay: greenhouse post-emergence herbicidal test; settings: 0.125 and 0.25 kg/ha (a.s.)
Text: (§2) The seeds of the test plants were sown separately for each species. For the post-emergence treatment, the test plants were first, grown to a plant height of from 3 to 15 cm, depending on the plant habit, and only then treated with the active ingredients which had been suspended or emulsified in water. To this end, the test plants were either sown directly and grown in the same containers, or they were first grown separately as seedlings and transplanted into the test containers a few days prior to treatment. The rat e of application for the post-emergence treatment was 0.25 or 0.125 kg of a.s. (active substance)/ha. Depending on the species, the plants were kept at from 10 to 25° C., or 20 to 35° C., respectively. The test period extended over 2 to 4 weeks. During this time, the plants were tended, and their response to the individual treatments was evaluated. Evaluation was carried out using a scale of from 0 to 100. 100 means no emergence of the plants, or complete destruction of at least the aerial parts, and 0 means no damage, or normal course of growth. [table] The following experiments were performed by the post-emergence method.

[10] = system: GALAP (catchweed bedstraw); assay: greenhouse post-emergence herbicidal test; settings: 0.125 and 0.25 kg/ha (a.s.)
Text: as §2

Cc1c(C(=O)C2=C(O)CCCC2=O)ccc2scnc12 [Example I-1a.394] was tested, and the “herbicidal action against IPOSS” value ([1]; 0.25 and 0.5 kg/ha (a.s.)) was “very good”, the “herbicidal action against AMARE” value ([2]; 0.25 and 0.5 kg/ha (a.s.)) was “very good” and the “herbicidal action against CHEAL” value ([3]; 0.25 and 0.5 kg/ha (a.s.)) was “very good”. The “herbicidal action against POLPE” value ([4]; 0.25 and 0.5 kg/ha (a.s.)) was “very good” and the selectivity in wheat [5] was “selectivity”.

For Cc1c(C(=O)C2=C(O)CCCC2=O)ccc2sc(C(C)C)nc12 [Example I-1a.408], the “herbicidal action against ECHCG” value ([6]; 0.125 and 0.25 kg/ha (a.s.)) was “good to very good”, the “herbicidal action against CHEAL” value ([3]; 0.125 and 0.25 kg/ha (a.s.)) was “good to very good” and the “herbicidal action against ABUTH” value ([7]; 0.125 and 0.25 kg/ha (a.s.)) was “good to very good”. For the same compound, the “herbicidal action against POLPE” value ([4]; 0.125 and 0.25 kg/ha (a.s.)) was “good to very good”.

With Cc1c(C(=O)C2=C(O)CC(C)(C)CC2=O)ccc2sc(Cl)nc12 [Example I-1c.396] the “herbicidal action against AMARE” value ([2]; 0.25 and 0.5 kg/ha (a.s.)) was “good to very good”, the “herbicidal action against ECHCG” value ([6]; 0.25 and 0.5 kg/ha (a.s.)) was “good to very good” and the “herbicidal action against CHEAL” value ([3]; 0.25 and 0.5 kg/ha (a.s.)) was “good to very good”. The “herbicidal action against SETFA” value ([8]; 0.25 and 0.5 kg/ha (a.s.)) was “good to very good”.

CCc1nc2c(C)c(C(=O)C3=C(O)C4CCC(C4)C3=O)ccc2s1 (centres unmarked) [Example I-1x.406] was tested, and the “herbicidal action against ECHCG” value ([6]; 0.125 and 0.25 kg/ha (a.s.)) was “very good”, the “herbicidal action against CHEAL” value ([3]; 0.125 and 0.25 kg/ha (a.s.)) was “very good” and the “herbicidal action against ABUTH” value ([7]; 0.125 and 0.25 kg/ha (a.s.)) was “very good”. The “herbicidal action against POLPE” value ([4]; 0.125 and 0.25 kg/ha (a.s.)) was “very good”.

COCc1nc2c(C)c(C(=O)C3=C(O)C4CCC(C4)C3=O)ccc2s1 (centres unmarked) [Example I-1x.420] was tested, and the “herbicidal action against PHPBU” value [9] was “very good”, the “herbicidal action against ECHCG” value ([6]; 0.125 and 0.25 kg/ha (a.s.)) was “very good” and the “herbicidal action against CHEAL” value ([3]; 0.125 and 0.25 kg/ha (a.s.)) was “very good”. For the same compound, the “herbicidal action against SETFA” value ([8]; 0.125 and 0.25 kg/ha (a.s.)) was “very good” and the “herbicidal action against POLPE” value ([4]; 0.125 and 0.25 kg/ha (a.s.)) was “very good”.

With CSc1nc2c(C)c(C(=O)C3=C(O)C4CCC(C4)C3=O)ccc2s1 (centres unmarked) [Example I-1x.435] the “herbicidal action against AMARE” value ([2]; 0.0625 and 0.125 kg/ha (a.s.)) was “very good”, the “herbicidal action against ECHCG” value ([6]; 0.0625 and 0.125 kg/ha (a.s.)) was “very good” and the “herbicidal action against CHEAL” value ([3]; 0.0625 and 0.125 kg/ha (a.s.)) was “very good”.

For Cc1c(C(=O)C2=C(O)C3CCC(C3)C2=O)ccc2sc(Oc3ccccc3F)nc12 (centres unmarked) [Example I-1x.790], the “herbicidal action against ECHCG” value ([6]; 0.125 and 0.25 kg/ha (a.s.)) was “very good”, the “herbicidal action against CHEAL” value ([3]; 0.125 and 0.25 kg/ha (a.s.)) was “very good” and the “herbicidal action against SETFA” value ([8]; 0.125 and 0.25 kg/ha (a.s.)) was “very good”. For the same compound, the “herbicidal action against POLPE” value ([4]; 0.125 and 0.25 kg/ha (a.s.)) was “very good”.

CCc1nc2c(C)c(C(=O)C3=C(O)CCCC3=O)ccc2o1 [Example I-2a.406] was tested, and the “herbicidal action against IPOSS” value ([1]; 0.125 and 0.25 kg/ha (a.s.)) was “very good”, the “herbicidal action against GALAP” value [10] was “good” and the “herbicidal action against AMARE” value ([2]; 0.125 and 0.25 kg/ha (a.s.)) was “very good”. For the same compound, the “herbicidal action against CHEAL” value ([3]; 0.125 and 0.25 kg/ha (a.s.)) was “very good” and the “herbicidal action against ABUTH” value ([7]; 0.125 and 0.25 kg/ha (a.s.)) was “very good”.

In the case of CCc1nc2c(C)c(C(=O)C3=C(O)C4CCC(C4)C3=O)ccc2o1 (centres unmarked) [Example I-2x.406], the “herbicidal action against ECHCG” value ([6]; 0.0625 and 0.125 kg/ha (a.s.)) is reported as “good to very good”, the “herbicidal action against CHEAL” value ([3]; 0.0625 and 0.125 kg/ha (a.s.)) is reported as “good to very good” and the “herbicidal action against ABUTH” value ([7]; 0.0625 and 0.125 kg/ha (a.s.)) is reported as “good to very good”. For the same compound, the “herbicidal action against POLPE” value ([4]; 0.0625 and 0.125 kg/ha (a.s.)) was “good to very good”.
